From patent US8969360B2, “Compounds useful as inhibitors of ATR kinase” (Vertex Pharmaceuticals Incorporated, priority 2013, dated 2015)

Experiments:
ATR kinase = molecular target: T1, ATR kinase (Homo sapiens, UniProt Q13535); assay: ATR Inhibition Assay (radioactive-phosphate incorporation); type: biochemical; settings: Ki(app); 5 nM full-length ATR, 10 μM ATP, 800 μM target peptide, 25° C.
T1 construct: Assays were carried out at 25° C. in the presence of 5 nM full-length ATR
Protocol: Compounds were screened for their ability to inhibit ATR kinase using a radioactive-phosphate incorporation assay. Assays were carried out in a mixture of 50 mM Tris/HCl (pH 7.5), 10 mM MgCl2 and 1 mM DTT. Final substrate concentrations were 10 μM [γ-33P]ATP (3 mCi 33P ATP/mmol ATP, Perkin Elmer) and 800 μM target peptide (ASELPASQPQPFSAKKK (SEQ. ID NO: 1)).
Assays were carried out at 25° C. in the presence of 5 nM full-length ATR. An assay stock buffer solution was prepared containing all of the reagents listed above, with the exception of ATP and the test compound of interest. 13.5 μL of the stock solution was placed in a 96 well plate followed by addition of 2 μL of DMSO stock containing serial dilutions of the test compound (typically starting from a final concentration of 15 μM with 3-fold serial dilutions) in duplicate (final DMSO concentration 7%). The plate was pre-incubated for 10 minutes at 25° C. and the reaction initiated by addition of 15 μL [γ-33P]ATP (final concentration 10 μM).
The reaction was stopped after […] by the addition of 30 μL, 0.1M phosphoric acid containing 2 mM ATP. A multiscreen phosphocellulose filter 96-well plate (Millipore, Cat no. MAPHN0B50) was pretreated with 100 μL 0.2M phosphoric acid prior to the addition of 45 μL of the stopped assay mixture. The plate was washed with 5×200 μL 0.2M phosphoric acid. After drying, 100 μL Optiphase ‘SuperMix’ liquid scintillation cocktail (Perkin Elmer) was added to the well prior to scintillation counting (1450 Microbeta Liquid Scintillation Counter, Wallac).
After removing mean background values for all of the data points, Ki(app) data were calculated from non-linear regression analysis of the initial rate data using the Prism software package (GraphPad Prism version 3.0cx for Macintosh, GraphPad Software, San Diego Calif., USA).
Compounds with a Ki value of <0.01 μM are marked with “+++.” Compounds with a Ki value >0.01 μM but <1 μM are marked with “++.” Compounds with a Ki value >1 μM but <5 μM are marked with “+.”

[1] = system: HCT116 colorectal cancer cells; assay: Cisplatin Sensitization Assay (96 h cell viability MTS); type: cell-based; settings: concentration of compound required to reduce the IC50 of Cisplatin alone by at least 3-fold; HCT116, 96 h MTS
Protocol: Compounds can be screened for their ability to sensitize HCT116 colorectal cancer cells to Cisplatin using a 96 h cell viability (MTS) assay. […] Compounds and Cisplatin are then both added simultaneously to the cell media in 2-fold serial dilutions from a top final concentration of 10 μM as a full matrix of concentrations in a final cell volume of 200 μl, and the cells are then incubated at 37° C. in 5% CO2. After 96 h, 40 μl of MTS reagent (Promega G358a) is added to each well and the cells are incubated for 1 h at 37° C. in 5% CO2. Finally, absorbance is measured at 490 nm using a SpectraMax Plus 384 reader (Molecular Devices) and the concentration of compound required to reduce the IC50 of Cisplatin alone by at least 3-fold (to 1 decimal place) can be reported.
Compounds with a Cisplatin sensitization value of <0.02 μM are marked with “+++.” Compounds with a Cisplatin sensitization value>0.02 μM but <0.2 μM are marked with “++.” Compounds with a Cisplatin sensitization value >0.2 μM but <5 μM are marked with “+.”

T1 sequence (Q13535 whole entry): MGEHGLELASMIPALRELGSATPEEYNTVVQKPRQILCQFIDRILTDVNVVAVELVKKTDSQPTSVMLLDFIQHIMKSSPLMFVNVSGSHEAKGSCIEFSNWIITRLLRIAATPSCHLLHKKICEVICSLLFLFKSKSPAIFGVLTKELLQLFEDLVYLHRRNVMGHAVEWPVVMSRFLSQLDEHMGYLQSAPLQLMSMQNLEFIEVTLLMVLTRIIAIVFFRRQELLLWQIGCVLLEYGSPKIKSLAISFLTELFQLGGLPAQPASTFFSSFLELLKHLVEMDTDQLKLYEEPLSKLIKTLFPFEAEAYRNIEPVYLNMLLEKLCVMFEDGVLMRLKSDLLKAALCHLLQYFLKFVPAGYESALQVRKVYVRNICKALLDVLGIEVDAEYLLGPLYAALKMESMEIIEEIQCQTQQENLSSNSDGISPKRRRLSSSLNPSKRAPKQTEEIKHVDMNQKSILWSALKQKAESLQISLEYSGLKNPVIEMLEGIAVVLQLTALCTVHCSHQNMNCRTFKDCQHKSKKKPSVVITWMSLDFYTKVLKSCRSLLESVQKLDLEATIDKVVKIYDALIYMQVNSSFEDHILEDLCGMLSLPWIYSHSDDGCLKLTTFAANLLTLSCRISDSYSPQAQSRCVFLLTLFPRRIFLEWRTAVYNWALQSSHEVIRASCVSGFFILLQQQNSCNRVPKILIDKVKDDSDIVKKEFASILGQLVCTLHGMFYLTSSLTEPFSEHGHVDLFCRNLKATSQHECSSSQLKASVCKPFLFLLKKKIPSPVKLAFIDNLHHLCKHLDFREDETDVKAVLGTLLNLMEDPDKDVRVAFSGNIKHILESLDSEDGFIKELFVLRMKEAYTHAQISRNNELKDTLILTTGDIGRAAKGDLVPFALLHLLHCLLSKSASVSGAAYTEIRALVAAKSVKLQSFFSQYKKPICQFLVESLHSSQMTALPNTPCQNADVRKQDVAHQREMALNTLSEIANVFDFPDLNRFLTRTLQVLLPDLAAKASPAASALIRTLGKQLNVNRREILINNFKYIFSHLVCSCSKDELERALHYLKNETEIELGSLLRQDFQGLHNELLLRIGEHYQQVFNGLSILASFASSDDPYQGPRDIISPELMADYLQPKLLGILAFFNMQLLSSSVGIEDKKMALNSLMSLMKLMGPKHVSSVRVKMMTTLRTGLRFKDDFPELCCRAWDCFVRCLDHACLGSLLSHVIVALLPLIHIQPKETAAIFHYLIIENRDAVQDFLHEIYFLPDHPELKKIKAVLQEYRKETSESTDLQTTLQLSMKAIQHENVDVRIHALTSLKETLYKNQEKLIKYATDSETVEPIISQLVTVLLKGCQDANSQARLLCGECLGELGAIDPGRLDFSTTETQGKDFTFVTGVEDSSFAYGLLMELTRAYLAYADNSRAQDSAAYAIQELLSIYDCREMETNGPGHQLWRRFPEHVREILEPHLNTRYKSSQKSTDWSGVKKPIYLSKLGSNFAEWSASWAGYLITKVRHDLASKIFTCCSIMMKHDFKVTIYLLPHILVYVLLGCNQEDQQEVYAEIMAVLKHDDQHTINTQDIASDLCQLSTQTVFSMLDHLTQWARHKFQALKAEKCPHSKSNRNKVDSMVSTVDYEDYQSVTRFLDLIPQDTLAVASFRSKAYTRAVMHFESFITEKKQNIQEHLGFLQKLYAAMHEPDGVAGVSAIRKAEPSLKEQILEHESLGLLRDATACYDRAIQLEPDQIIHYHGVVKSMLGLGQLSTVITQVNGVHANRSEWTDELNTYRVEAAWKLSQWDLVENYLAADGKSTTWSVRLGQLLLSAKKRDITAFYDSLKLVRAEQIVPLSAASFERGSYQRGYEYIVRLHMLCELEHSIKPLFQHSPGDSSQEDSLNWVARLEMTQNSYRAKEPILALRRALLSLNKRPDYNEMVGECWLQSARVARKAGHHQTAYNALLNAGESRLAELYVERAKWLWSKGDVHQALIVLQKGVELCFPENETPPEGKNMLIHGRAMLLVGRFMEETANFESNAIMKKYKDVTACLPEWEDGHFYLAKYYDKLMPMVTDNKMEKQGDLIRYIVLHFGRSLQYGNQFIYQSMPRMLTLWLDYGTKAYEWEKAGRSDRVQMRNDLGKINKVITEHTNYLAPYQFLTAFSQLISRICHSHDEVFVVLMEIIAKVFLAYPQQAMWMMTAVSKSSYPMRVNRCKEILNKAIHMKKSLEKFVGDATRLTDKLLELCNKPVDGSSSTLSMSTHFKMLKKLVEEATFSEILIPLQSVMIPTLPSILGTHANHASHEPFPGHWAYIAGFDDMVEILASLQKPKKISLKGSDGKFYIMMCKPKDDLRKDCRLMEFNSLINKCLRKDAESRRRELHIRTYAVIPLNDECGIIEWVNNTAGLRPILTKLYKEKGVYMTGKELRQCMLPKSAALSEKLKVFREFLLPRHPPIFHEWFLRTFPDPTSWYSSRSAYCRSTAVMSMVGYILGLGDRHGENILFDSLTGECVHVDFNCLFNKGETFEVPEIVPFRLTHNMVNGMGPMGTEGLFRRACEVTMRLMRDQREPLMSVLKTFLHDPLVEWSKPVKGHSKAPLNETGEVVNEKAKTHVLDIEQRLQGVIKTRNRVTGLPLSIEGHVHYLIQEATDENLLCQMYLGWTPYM

Row | Compound | Ki (ATR kinase) | Synergy with Cisplatin [1]
1 | Nc1nn2ccc(C(F)(F)F)nc2c1C(=O)Nc1cnccc1OC1CCNCC1 [I-O-41, 2-amino-N-(4-(piperidin-4-yloxy)pyridin-3-yl)-5-(trifluoromethyl)pyrazolo[1,5-a]pyrimidine-3-carboxamide] | 10 to 1000 nM | ++ (Compounds with a Cisplatin sensitization value>0.02 μM but <0.2 μM are marked with “++.”)
2 | CN(C)CCOc1cc(Cl)ncc1NC(=O)c1c(N)nn2ccc(C(F)(F)F)nc12 [I-O-50, 2-amino-N-(6-chloro-4-(2-(dimethylamino)ethoxy)pyridin-3-yl)-5-(trifluoromethyl)pyrazolo[1,5-a]pyrimidine-3-carboxamide] | 10 to 1000 nM | ++ (Compounds with a Cisplatin sensitization value>0.02 μM but <0.2 μM are marked with “++.”)
3 | CC(C)Oc1ccncc1NC(=O)c1c(N)nn2ccc(OCCN(C)C)nc12 [I-O-64, 2-amino-5-(2-(dimethylamino)ethoxy)-N-(4-isopropoxypyridin-3-yl)pyrazolo[1,5-a]pyrimidine-3-carboxamide] | 1000 to 5000 nM | + (Compounds with a Cisplatin sensitization value >0.2 μM but <5 μM are marked with “+.”)
4 | Nc1nn2ccc(C(F)(F)F)nc2c1C(=O)Nc1cnccc1OC1CCOCC1 [I-O-11, 2-amino-N-(4-((tetrahydro-2H-pyran-4-yl)oxy)pyridin-3-yl)-5-(trifluoromethyl)pyrazolo[1,5-a]pyrimidine-3-carboxamide] | 10 to 1000 nM | +++ (Compounds with a Cisplatin sensitization value of <0.02 μM are marked with “+++.”)
5 | COc1ccncc1NC(=O)c1c(N)nn2ccc(OCCN(C)C)nc12 [I-O-62, 2-amino-5-(2-(dimethylamino)ethoxy)-N-(4-methoxypyridin-3-yl)pyrazolo[1,5-a]pyrimidine-3-carboxamide] | 10 to 1000 nM | ++ (Compounds with a Cisplatin sensitization value>0.02 μM but <0.2 μM are marked with “++.”)
6 | Nc1nn2ccc(C(F)(F)F)nc2c1C(=O)Nc1cnccc1OC1CC2(CCN2)C1 (centres unmarked) [I-O-24, N-(4-((4r,6s)-1-azaspiro[3.3]heptan-6-yloxy)pyridin-3-yl)-2-amino-5-(trifluoromethyl)pyrazolo[1,5-a]pyrimidine-3-carboxamide] | 10 to 1000 nM | +++ (Compounds with a Cisplatin sensitization value of <0.02 μM are marked with “+++.”)
7 | C=CCOCc1ccn2nc(N)c(C(=O)Nc3cnccc3OC)c2n1 [I-O-55, 5-((allyloxy)methyl)-2-amino-N-(4-methoxypyridin-3-yl)pyrazolo[1,5-a]pyrimidine-3-carboxamide] | 10 to 1000 nM | +++ (Compounds with a Cisplatin sensitization value of <0.02 μM are marked with “+++.”)
8 | Nc1nn2ccc(C(F)(F)F)nc2c1C(=O)Nc1cnccc1OC1CCC1 [I-O-5, 2-amino-N-(4-cyclobutoxypyridin-3-yl)-5-(trifluoromethyl)pyrazolo[1,5-a]pyrimidine-3-carboxamide] | 10 to 1000 nM | +++ (Compounds with a Cisplatin sensitization value of <0.02 μM are marked with “+++.”)
9 | COc1ccncc1NC(=O)c1c(N)nn2ccc(OC3CCCN(C)C3)nc12 (centres unmarked) [I-O-58, 2-amino-N-(4-methoxypyridin-3-yl)-5-((1-methylpiperidin-3-yl)oxy)pyrazolo[1,5-a]pyrimidine-3-carboxamide] | 10 to 1000 nM | ++ (Compounds with a Cisplatin sensitization value>0.02 μM but <0.2 μM are marked with “++.”)
10 | CN(C)[C@H]1C[C@@H](Oc2ccncc2NC(=O)c2c(N)nn3ccc(C(F)(F)F)nc23)C1 [I-O-34, 2-amino-N-(4-((1s,3s)-3-(dimethylamino)cyclobutoxy)pyridin-3-yl)-5-(trifluoromethyl)pyrazolo[1,5-a]pyrimidine-3-carboxamide] | 10 to 1000 nM | ++ (Compounds with a Cisplatin sensitization value>0.02 μM but <0.2 μM are marked with “++.”)

Continued, in another order:

Row | Ki (ATR kinase) | Compound | Synergy with Cisplatin [1]
11 | 10 to 1000 nM | CN1CCC[C@H]1COc1ccncc1NC(=O)c1c(N)nn2ccc(C(F)(F)F)nc12 [I-O-33, (S)-2-amino-N-(4-((1-methylpyrrolidin-2-yl)methoxy)pyridin-3-yl)-5-(trifluoromethyl)pyrazolo[1,5-a]pyrimidine-3-carboxamide] | ++ (Compounds with a Cisplatin sensitization value>0.02 μM but <0.2 μM are marked with “++.”)
12 | 10 to 1000 nM | CN1CC[C@@H](Oc2ccncc2NC(=O)c2c(N)nn3ccc(C(F)(F)F)nc23)C1 [I-O-19, (R)-2-amino-N-(4-((1-methylpyrrolidin-3-yl)oxy)pyridin-3-yl)-5-(trifluoromethyl)pyrazolo[1,5-a]pyrimidine-3-carboxamide] | ++ (Compounds with a Cisplatin sensitization value>0.02 μM but <0.2 μM are marked with “++.”)
13 | 10 to 1000 nM | COc1ccncc1NC(=O)c1c(N)nn2ccc(N3CCN(C)CC3)nc12 [I-O-78, 2-amino-N-(4-methoxypyridin-3-yl)-5-(4-methylpiperazin-1-yl)pyrazolo[1,5-a]pyrimidine-3-carboxamide] | + (Compounds with a Cisplatin sensitization value >0.2 μM but <5 μM are marked with “+.”)
14 | 10 to 1000 nM | Nc1nn2ccc(C(F)(F)F)nc2c1C(=O)Nc1cnccc1-c1ccccc1 [I-C-2, 2-amino-N-(4-phenylpyridin-3-yl)-5-(trifluoromethyl)pyrazolo[1,5-a]pyrimidine-3-carboxamide] | + (Compounds with a Cisplatin sensitization value >0.2 μM but <5 μM are marked with “+.”)
15 | 10 to 1000 nM | COc1ccncc1NC(=O)c1c(N)nn2ccc(N(C)CC3CCCN3C)nc12 (centres unmarked) [I-O-73, 2-amino-N-(4-methoxypyridin-3-yl)-5-(methyl((1-methylpyrrolidin-2-yl)methyl)amino)pyrazolo[1,5-a]pyrimidine-3-carboxamide] | + (Compounds with a Cisplatin sensitization value >0.2 μM but <5 μM are marked with “+.”)
16 | 10 to 1000 nM | COc1ccncc1NC(=O)c1c(N)nn2ccc(CO)nc12 [I-O-54, 2-amino-5-(hydroxymethyl)-N-(4-methoxypyridin-3-yl)pyrazolo[1,5-a]pyrimidine-3-carboxamide] | ++ (Compounds with a Cisplatin sensitization value>0.02 μM but <0.2 μM are marked with “++.”)
17 | 10 to 1000 nM | CN1CC[C@H](Oc2ccncc2NC(=O)c2c(N)nn3ccc(C(F)(F)F)nc23)C1 [I-O-40, (S)-2-amino-N-(4-((1-methylpyrrolidin-3-yl)oxy)pyridin-3-yl)-5-(trifluoromethyl)pyrazolo[1,5-a]pyrimidine-3-carboxamide] | ++ (Compounds with a Cisplatin sensitization value>0.02 μM but <0.2 μM are marked with “++.”)
18 | 10 to 1000 nM | Nc1nn2ccc(C(F)(F)F)nc2c1C(=O)Nc1cnccc1OCCN1CCOCC1 [I-O-20, 2-amino-N-(4-(2-morpholinoethoxy)pyridin-3-yl)-5-(trifluoromethyl)pyrazolo[1,5-a]pyrimidine-3-carboxamide] | ++ (Compounds with a Cisplatin sensitization value>0.02 μM but <0.2 μM are marked with “++.”)
19 | 10 to 1000 nM | COc1ccncc1NC(=O)c1c(N)nn2ccc(NCC3CCCN3C)nc12 (centres unmarked) [I-O-71] | + (Compounds with a Cisplatin sensitization value >0.2 μM but <5 μM are marked with “+.”)
